Source: patent US8933103B2, “Pyridone derivatives” (Daiichi Sankyo Company, Limited, priority 2012, dated 2015)

Biological target: T1, AXL (fusion protein of amino acids 464-885 of the intracellular domain of human AXL with glutathione transferase) (Homo sapiens, UniProt P30530)
T1 sequence (P30530 464-885 isoform P30530-2): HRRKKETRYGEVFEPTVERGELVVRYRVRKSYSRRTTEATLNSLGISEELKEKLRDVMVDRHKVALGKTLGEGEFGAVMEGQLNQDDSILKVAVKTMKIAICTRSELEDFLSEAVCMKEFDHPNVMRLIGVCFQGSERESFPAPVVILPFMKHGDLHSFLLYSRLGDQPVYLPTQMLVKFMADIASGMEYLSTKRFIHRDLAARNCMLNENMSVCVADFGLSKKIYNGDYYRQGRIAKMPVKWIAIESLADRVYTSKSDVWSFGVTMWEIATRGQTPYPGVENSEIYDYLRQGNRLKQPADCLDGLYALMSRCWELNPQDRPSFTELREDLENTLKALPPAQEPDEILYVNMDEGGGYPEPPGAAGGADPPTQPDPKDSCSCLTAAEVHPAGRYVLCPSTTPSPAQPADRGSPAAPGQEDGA
Assay: Cell-Free Axl Kinase Inhibitory Activity

First: CCn1cc(C(=O)Nc2ccc(-c3cc(-c4ccc(OC[C@H]5COCCO5)c(OC)c4)cnc3N)cc2)c(=O)c(-c2ccc(F)cc2)c1 [Example 46, N-[4-(2-Amino-5-{4-[(2R)-1,4-dioxan-2-ylmethoxy]-3-methoxyphenyl}pyridin-3-yl)phenyl]-1-ethyl-5-(4-fluorophenyl)-4-oxo-1,4-dihydropyridine-3-carboxamide]
Second: COCCn1cc(C(=O)Nc2ccc(-c3cc(-c4ccc(OC)c(OC)c4)cnc3N)cc2)c(=O)c(-c2ccc(F)cc2)c1 [Example 5, N-{4-[2-Amino-5-(3,4-dimethoxyphenyl)pyridin-3-yl]phenyl}-5-(4-fluorophenyl)-1-(2-methoxyethyl)-4-oxo-1,4-dihydropyridine-3-carboxamide]
The IC50 of the first is higher: 1 to 10 nM for the first, 0.1 to 1 nM for the second.

First: COc1ccc(-c2cnc(N)c(-c3ccc(NC(=O)c4cn(CCF)cc(-c5ccccc5)c4=O)cc3)c2)cc1OC [Example 19, N-{4-[2-Amino-5-(3,4-dimethoxyphenyl)pyridin-3-yl]phenyl}-1-(2-fluoroethyl)-4-oxo-5-phenyl-1,4-dihydropyridine-3-carboxamide]
Second: COc1cc(-c2cnc(N)c(-c3ccc(NC(=O)c4cn(CCF)cc(-c5ccccc5)c4=O)cc3)c2)ccc1OCCN1CCCC1 [Example 40, N-(4-{2-Amino-5-[3-methoxy-4-(2-pyrrolidin-1-ylethoxy)phenyl]pyridin-3-yl}phenyl)-1-(2-fluoroethyl)-4-oxo-5-phenyl-1,4-dihydropyridine-3-carboxamide]
The IC50 of the first is higher: 1 to 10 nM for the first, 0.1 to 1 nM for the second.

`CC(=O)N1CC=C(c2cnc(N)c(-c3ccc(NC(=O)c4cn(CC(F)(F)F)cc(-c5ccc(F)cc5)c4=O)cc3)c2)CC1` [Example 80, N-[4-(1′-Acetyl-6-amino-1′,2′,3′,6′-tetrahydro-3,4′-bipyridin-5-yl)phenyl]-5-(4-fluorophenyl)-4-oxo-1-(2,2,2-trifluoroethyl)-1,4-dihydropyridine-3-carboxamide] and `Cc1cc(-c2cnc(N)c(-c3ccc(NC(=O)c4cn(CC(F)(F)F)cc(-c5ccc(F)cc5)c4=O)cc3)c2)ccn1` [Example 77, N-[4-(6-Amino-2′-methyl-3,4′-bipyridin-5-yl)phenyl]-5-(4-fluorophenyl)-4-oxo-1-(2,2,2-trifluoroethyl)-1,4-dihydropyridine-3-carboxamide] fall in the same range of IC50: 0.1 to 1 nM for the first, 0.1 to 1 nM for the second.

First: Nc1ncc(-c2cnn(C[C@H]3COCCO3)c2)cc1-c1ccc(NC(=O)c2cn(Cc3ccc(F)cc3)cc(C(=O)N3CCC(F)(F)C3)c2=O)cc1 [Example 73, N-[4-(2-Amino-5-{1-[(2S)-1,4-dioxan-2-ylmethyl]-1H-pyrazol-4-yl}pyridin-3-yl)phenyl]-5-[(3,3-difluoropyrrolidin-1-yl)carbonyl]-1-(4-fluorobenzyl)-4-oxo-1,4-dihydropyridine-3-carboxamide]
Second: Nc1ncc(-c2cnn(C[C@H]3COCCO3)c2)cc1-c1ccc(NC(=O)c2cn(Cc3ccc(F)cc3)cc(C(=O)N3CCCC3)c2=O)cc1 [Example 71, N-[4-(2-Amino-5-{1-[(2S)-1,4-dioxan-2-ylmethyl]-1H-pyrazol-4-yl}pyridin-3-yl)phenyl]-1-(4-fluorobenzyl)-4-oxo-5-(pyrrolidin-1-ylcarbonyl)-1,4-dihydropyridine-3-carboxamide]
The IC50 of the first is higher: 10 to 20 nM for the first, 0.1 to 1 nM for the second.

`CC(O)Cn1cc(-c2cnc(N)c(-c3ccc(NC(=O)c4cn(CCF)cc(-c5ccc(F)cc5)c4=O)cc3)c2)cn1` (racemic) [Example 63, N-(4-{2-Amino-5-[1-(2-hydroxypropyl)-1H-pyrazol-4-yl]pyridin-3-yl}phenyl)-1-(2-fluoroethyl)-5-(4-fluorophenyl)-4-oxo-1,4-dihydropyridine-3-carboxamide] and `Cn1cc(-c2cnc(N)c(-c3ccc(NC(=O)c4cn(CCF)cc(-c5ccc(F)cc5)c4=O)cc3)c2)cn1` [Example 48, N-{4-[2-Amino-5-(1-methyl-1H-pyrazol-4-yl)pyridin-3-yl]phenyl}-1-(2-fluoroethyl)-5-(4-fluorophenyl)-4-oxo-1,4-dihydropyridine-3-carboxamide] fall in the same range of IC50: 1 to 10 nM for the first, 1 to 10 nM for the second.

`Cn1cc(-c2cnc(N)c(-c3ccc(NC(=O)c4cn(CCF)cc(-c5ccccc5)c4=O)cc3F)c2)cn1` [Example 55, N-{4-[2-Amino-5-(1-methyl-1H-pyrazol-4-yl)pyridin-3-yl]-3-fluorophenyl}-1-(2-fluoroethyl)-4-oxo-5-phenyl-1,4-dihydropyridine-3-carboxamide] and `Nc1ncc(-c2cnn(C[C@H]3COCCO3)c2)cc1-c1ccc(NC(=O)c2cn(CCF)cc(-c3ccccc3)c2=O)cc1F` [Example 75, N-[4-(2-Amino-5-{1-[(2S)-1,4-dioxan-2-ylmethyl]-1H-pyrazol-4-yl}pyridin-3-yl)-3-fluorophenyl]-1-(2-fluoroethyl)-4-oxo-5-phenyl-1,4-dihydropyridine-3-carboxamide] fall in the same range of IC50: 1 to 10 nM for the first, 1 to 10 nM for the second.

Compared with `COc1ccc(-c2cnc(N)c(-c3ccc(NC(=O)c4cn(Cc5ccc(F)cc5)cc(C(=O)N5C[C@@H](C)O[C@@H](C)C5)c4=O)cc3)c2)cc1OC` [Example 27, N-{4-[2-Amino-5-(3,4-dimethoxyphenyl)pyridin-3-yl]phenyl}-5-{[(2R,6S)-2,6-dimethylmorpholin-4-yl]carbonyl}-1-(4-fluorobenzyl)-4-oxo-1,4-dihydropyridine-3-carboxamide], `COc1ccc(-c2cnc(N)c(-c3ccc(NC(=O)c4cn(CC(=O)N(C)C)cc(-c5ccc(F)cc5)c4=O)cc3)c2)cc1OC` [Example 16, N-{4-[2-Amino-5-(3,4-dimethoxyphenyl)pyridin-3-yl]phenyl}-1-[2-(dimethylamino)-2-oxoethyl]-5-(4-fluorophenyl)-4-oxo-1,4-dihydropyridine-3-carboxamide] is higher in IC50: 0.1 to 1 nM for the first, 1 to 10 nM for the second. The first is the more potent here.

Compared with `Cn1cc(-c2cnc(N)c(-c3ccc(NC(=O)c4cn(Cc5ccccc5)cc(-c5ccc(F)cc5)c4=O)cc3)c2)cn1` [Example 51, N-{4-[2-Amino-5-(1-methyl-1H-pyrazol-4-yl)pyridin-3-yl]phenyl}-1-benzyl-5-(4-fluorophenyl)-4-oxo-1,4-dihydropyridine-3-carboxamide], `Cn1cc(-c2cnc(N)c(-c3ccc(NC(=O)c4cn(CC(F)(F)F)cc(-c5ccccc5)c4=O)cc3)c2)cn1` [Example 54, N-{4-[2-Amino-5-(1-methyl-1H-pyrazol-4-yl)pyridin-3-yl]phenyl}-4-oxo-5-phenyl-1-(2,2,2-trifluoroethyl)-1,4-dihydropyridine-3-carboxamide] is higher in IC50: 0.1 to 1 nM for the first, 1 to 10 nM for the second.

`CNC(=O)Cn1cc(C(=O)Nc2ccc(-c3cc(-c4ccc(OC)c(OC)c4)cnc3N)cc2)c(=O)c(-c2ccc(F)cc2)c1` [Example 15, N-{4-[2-Amino-5-(3,4-dimethoxyphenyl)pyridin-3-yl]phenyl}-5-(4-fluorophenyl)-1-[2-(methylamino)-2-oxoethyl]-4-oxo-1,4-dihydropyridine-3-carboxamide] and `COc1ccc(-c2cnc(N)c(-c3ccc(NC(=O)c4cn(Cc5ccccn5)cc(-c5ccc(F)cc5)c4=O)cc3)c2)cc1OC` [Example 12, N-{4-[2-Amino-5-(3,4-dimethoxyphenyl)pyridin-3-yl]phenyl}-5-(4-fluorophenyl)-4-oxo-1-(pyridin-2-ylmethyl)-1,4-dihydropyridine-3-carboxamide] fall in the same range of IC50: 0.1 to 1 nM for the first, 0.1 to 1 nM for the second.

`COc1ccnc(N)c1-c1ccc(NC(=O)c2cn(CC(F)(F)F)cc(-c3ccc(F)cc3)c2=O)cc1` [Example 82, N-[4-(2-Amino-4-methoxypyridin-3-yl)phenyl]-5-(4-fluorophenyl)-4-oxo-1-(2,2,2-trifluoroethyl)-1,4-dihydropyridine-3-carboxamide] and `COc1cc(-c2cnc(N)c(-c3ccc(NC(=O)c4cn(CC(F)(F)F)cc(-c5ccc(F)cc5)c4=O)cc3)c2)ccc1O` [Example 37, N-{4-[2-Amino-5-(4-hydroxy-3-methoxyphenyl)pyridin-3-yl]phenyl}-5-(4-fluorophenyl)-4-oxo-1-(2,2,2-trifluoroethyl)-1,4-dihydropyridine-3-carboxamide] fall in the same range of IC50: 1 to 10 nM for the first, 1 to 10 nM for the second.

Compared with `COc1ccc(-c2cnc(N)c(-c3ccc(NC(=O)c4cn(CC(F)(F)F)cc(-c5ccc(F)nc5)c4=O)cc3)c2)cc1OC` [Example 23, N-{4-[2-Amino-5-(3,4-dimethoxyphenyl)pyridin-3-yl]phenyl}-6′-fluoro-4-oxo-1-(2,2,2-trifluoroethyl)-1,4-dihydro-3,3′-bipyridine-5-carboxamide], `COc1ccc(-c2cnc(N)c(-c3ccc(NC(=O)c4cn(Cc5ccncc5)cc(-c5ccc(F)cc5)c4=O)cc3)c2)cc1OC` [Example 13, N-{4-[2-Amino-5-(3,4-dimethoxyphenyl)pyridin-3-yl]phenyl}-5-(4-fluorophenyl)-4-oxo-1-(pyridin-4-ylmethyl)-1,4-dihydropyridine-3-carboxamide] is lower in IC50: 1 to 10 nM for the first, 0.1 to 1 nM for the second.

`CCN(CC)C(=O)c1cn(Cc2ccc(F)cc2)cc(C(=O)Nc2ccc(-c3cc(-c4cnn(C[C@H]5COCCO5)c4)cnc3N)cc2)c1=O` [Example 70, N′-[4-(2-Amino-5-{1-[(2S)-1,4-dioxan-2-ylmethyl]-1H-pyrazol-4-yl}pyridin-3-yl)phenyl]-N,N-diethyl-1-(4-fluorobenzyl)-4-oxo-1,4-dihydropyridine-3,5-dicarboxamide] and `COc1ccc(-n2cc(-c3ccc(F)cc3)c(=O)c(C(=O)Nc3ccc(-c4cc(-c5cnn(C)c5)cnc4N)cc3)n2)cc1` [Example 61, N-{4-[2-Amino-5-(1-methyl-1H-pyrazol-4-yl)pyridin-3-yl]phenyl}-5-(4-fluorophenyl)-1-(4-methoxyphenyl)-4-oxo-1,4-dihydropyridazine-3-carboxamide] fall in the same range of IC50: 1 to 10 nM for the first, 1 to 10 nM for the second.
